# Measured values as given in US20070004660A1, “Synergistic Modulation of Flt3 Kinase Using Alkylquinolines and Alkylquinazolines” (priority 2005, published 2007).
# Biological target: T1, wild-type FLT3 receptor (Homo sapiens, UniProt P36888)
# T1 construct: host or cells: Baf3 (murine B cell lymphoma line), stably transfected
# T1 sequence (P36888 27-993): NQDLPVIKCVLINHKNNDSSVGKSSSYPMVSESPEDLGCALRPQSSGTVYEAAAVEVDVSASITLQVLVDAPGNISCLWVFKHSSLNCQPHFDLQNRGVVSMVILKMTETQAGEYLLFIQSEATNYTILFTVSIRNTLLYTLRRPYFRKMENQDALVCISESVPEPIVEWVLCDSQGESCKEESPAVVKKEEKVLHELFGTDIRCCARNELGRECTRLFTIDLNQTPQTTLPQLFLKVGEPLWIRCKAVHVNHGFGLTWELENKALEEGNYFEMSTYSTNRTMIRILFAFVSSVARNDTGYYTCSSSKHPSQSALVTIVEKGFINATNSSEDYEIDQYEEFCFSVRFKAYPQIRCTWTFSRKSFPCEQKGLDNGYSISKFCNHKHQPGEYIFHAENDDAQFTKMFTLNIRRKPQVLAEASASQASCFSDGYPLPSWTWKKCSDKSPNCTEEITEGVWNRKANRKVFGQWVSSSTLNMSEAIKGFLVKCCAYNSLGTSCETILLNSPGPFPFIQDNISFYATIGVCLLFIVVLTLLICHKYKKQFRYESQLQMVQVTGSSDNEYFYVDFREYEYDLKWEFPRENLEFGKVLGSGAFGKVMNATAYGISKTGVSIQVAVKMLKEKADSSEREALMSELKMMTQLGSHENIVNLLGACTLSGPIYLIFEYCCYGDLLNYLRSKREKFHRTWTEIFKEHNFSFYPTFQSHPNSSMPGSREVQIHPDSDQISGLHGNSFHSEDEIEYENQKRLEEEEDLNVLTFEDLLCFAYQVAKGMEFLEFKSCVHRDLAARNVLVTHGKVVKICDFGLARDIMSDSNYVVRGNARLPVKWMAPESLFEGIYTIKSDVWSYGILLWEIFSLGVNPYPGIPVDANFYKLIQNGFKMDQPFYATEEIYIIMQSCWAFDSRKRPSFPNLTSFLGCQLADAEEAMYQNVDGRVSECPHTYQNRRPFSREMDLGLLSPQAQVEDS
# Test: Cell-based FLT3 receptor ELISA (FLT ligand-induced phosphorylation in Baf3 FLT3 cells)
# Settings: 100 ng/mL Flt ligand, uncertainty ±20%
# Procedure, shortened: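 Receptor phosphotyrosine measured by sandwich ELISA (anti-FLT3 capture, HRP anti-pTyr, luminescence) in FLT3-transfected murine Baf3 cells given 1 h compound pretreatment and 10 min 100 ng/mL FLT ligand after overnight low-serum starvation; triplicates, IC50 from nonlinear regression.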
row,Compound,IC50 [nM]
1,"COCCCOc1ccc2c(C3CCN(C(=O)Nc4ccc(N5CCOCC5)cc4)CC3)ncnc2c1 [Example 78, 4-[7-(3-Methoxy-propoxy)-quinazolin-4-yl]-piperidine-1-carboxylic acid (4-morpholin-4-yl-phenyl)-amide]",20
2,"CC(C)Oc1ccc(NC(=O)N2CCC(c3ncnc4cc(OCCN5CCOC5=O)ccc34)CC2)cc1 [Example 79, 4-{7-[2-(2-Oxo-oxazolidin-3-yl)-ethoxy]-quinazolin-4-yl}-piperidine-1-carboxylic acid (4-isopropoxy-phenyl)-amide]",17
3,"CN1CCN(CCCOc2ccc3c(C4CCN(C(=O)Nc5ccc(N6CCOCC6)nc5)CC4)ncnc3c2)CC1 [Example 80, 4-{7-[3-(4-Methyl-piperazin-1-yl)-propoxy]-quinazolin-4-yl}-piperidine-1-carboxylic acid (6-morpholin-4-yl-pyridin-3-yl)-amide]",19
4,"CN1CCN(CCCOc2ccc3c(C4CCN(C(=O)Nc5ccc(N6CCOCC6)c(F)c5)CC4)ncnc3c2)CC1 [Example 81, 4-{7-[3-(4-Methyl-piperazin-1-yl)-propoxy]-quinazolin-4-yl}-piperidine-1-carboxylic acid (3-fluoro-4-morpholin-4-yl-phenyl)-amide]",28
5,"CN1CCN(CCCOc2ccc3c(C4CCN(C(=O)Nc5ccc(OC6CCCC6)nc5)CC4)ncnc3c2)CC1 [Example 82, 4-{7-[3-(4-Methyl-piperazin-1-yl)-propoxy]-quinazolin-4-yl}-piperidine-1-carboxylic acid (6-cyclopentyloxy-pyridin-3-yl)-amide]",63
6,"O=C1CCCN1CCOc1ccc2c(C3CCN(C(=O)Nc4ccc(N5CCOCC5)nc4)CC3)ncnc2c1 [Example 83, 4-{7-[2-(2-Oxo-pyrrolidin-1-yl)-ethoxy]-quinazolin-4-yl}-piperidine-1-carboxylic acid (6-morpholin-4-yl-pyridin-3-yl)-amide]",37
7,"O=C1CCCN1CCOc1ccc2c(C3CCN(C(=O)Nc4cnc(N5CCCC5)nc4)CC3)ncnc2c1 [Example 84, 4-{7-[2-(2-Oxo-pyrrolidin-1-yl)-ethoxy]-quinazolin-4-yl}-piperidine-1-carboxylic acid (2-pyrrolidin-1-yl-pyrimidin-5-yl)-amide]",80
8,"O=C1CCCN1CCOc1ccc2c(C3CCN(C(=O)Nc4ccc(N5CCOCC5)cc4)CC3)ncnc2c1 [Example 85, 4-{7-[2-(2-Oxo-pyrrolidin-1-yl)-ethoxy]-quinazolin-4-yl}-piperidine-1-carboxylic acid (4-morpholin-4-yl-phenyl)-amide]",75
9,"CS(=O)(=O)NCCCOc1ccc2c(C3CCN(C(=O)Nc4ccc(N5CCCC5)nc4)CC3)ncnc2c1 [Example 86, 4-[7-(3-Methanesulfonylamino-propoxy)-quinazolin-4-yl]-piperidine-1-carboxylic acid (6-pyrrolidin-1-yl-pyridin-3-yl)-amide]",9
10,"CS(=O)(=O)NCCCOc1ccc2c(C3CCN(C(=O)Nc4ccc(N5CCOCC5)nc4)CC3)ncnc2c1 [Example 87, 4-[7-(3-Methanesulfonylamino-propoxy)-quinazolin-4-yl]-piperidine-1-carboxylic acid (6-morpholin-4-yl-pyridin-3-yl)-amide]",23
11,"CS(=O)(=O)NCCCOc1ccc2c(C3CCN(C(=O)Nc4ccc(OC5CCCC5)nc4)CC3)ncnc2c1 [Example 88, 4-[7-(3-Methanesulfonylamino-propoxy)-quinazolin-4-yl]-piperidine-1-carboxylic acid (6-cyclopentyloxy-pyridin-3-yl)-amide]",30
12,"O=C1CCCN1CCCOc1ccc2c(C3CCN(C(=O)Nc4ccc(N5CCCC5)nc4)CC3)ncnc2c1 [Example 89, 4-{7-[3-(2-Oxo-pyrrolidin-1-yl)-propoxy]-quinazolin-4-yl}-piperidine-1-carboxylic acid (6-pyrrolidin-1-yl-pyridin-3-yl)-amide]",1
13,"O=C1CCCN1CCCOc1ccc2c(C3CCN(C(=O)Nc4cnc(N5CCCC5)nc4)CC3)ncnc2c1 [Example 90, 4-{7-[3-(2-Oxo-pyrrolidin-1-yl)-propoxy]-quinazolin-4-yl}-piperidine-1-carboxylic acid (2-pyrrolidin-1-yl-pyrimidin-5-yl)-amide]",279
14,"O=C(Nc1ccc(N2CCOCC2)nc1)N1CCC(c2ncnc3cc(OCCN4CCOC4=O)ccc23)CC1 [Example 91, 4-{7-[2-(2-Oxo-oxazolidin-3-yl)-ethoxy]-quinazolin-4-yl}-piperidine-1-carboxylic acid (6-morpholin-4-yl-pyridin-3-yl)-amide]",6
15,"O=C(Nc1ccc(N2CCCC2)nc1)N1CCC(c2ncnc3cc(OCCN4CCOC4=O)ccc23)CC1 [Example 92, 4-{7-[2-(2-Oxo-oxazolidin-3-yl)-ethoxy]-quinazolin-4-yl}-piperidine-1-carboxylic acid (6-pyrrolidin-1-yl-pyridin-3-yl)-amide]",12
16,"CC(C)Oc1ccc(NC(=O)N2CCC(c3ncnc4cc(OCC5CCN(C)CC5)ccc34)CC2)cc1 [Example 93, 4-[7-(1-Methyl-piperidin-4-ylmethoxy)-quinazolin-4-yl]-piperidine-1-carboxylic acid (4-isopropoxy-phenyl)-amide]",1
17,"CN1CCC(COc2ccc3c(C4CCN(C(=O)Nc5ccc(N6CCOCC6)cc5)CC4)ncnc3c2)CC1 [Example 94, 4-[7-(1-Methyl-piperidin-4-ylmethoxy)-quinazolin-4-yl]-piperidine-1-carboxylic acid (4-morpholin-4-yl-phenyl)-amide]",11
18,"O=C(Nc1ccc(N2CCCC2)nc1)N1CCC(c2ncnc3cc(OCCN4CCOCC4)ccc23)CC1 [Example 95, 4-[7-(2-Morpholin-4-yl-ethoxy)-quinazolin-4-yl]-piperidine-1-carboxylic acid (6-pyrrolidin-1-yl-pyridin-3-yl)-amide]",25
19,"O=C(Nc1ccc(N2CCOCC2)cc1)N1CCC(c2ncnc3cc(OCCN4CCOCC4)ccc23)CC1 [Example 96, 4-[7-(2-Morpholin-4-yl-ethoxy)-quinazolin-4-yl]-piperidine-1-carboxylic acid (4-morpholin-4-yl-phenyl)-amide]",243
20,"CC(=O)N1CCN(CCOc2ccc3c(C4CCN(C(=O)Nc5ccc(N6CCOCC6)cc5)CC4)ncnc3c2)CC1 [Example 97, 4-{7-[2-(4-Acetyl-piperazin-1-yl)-ethoxy]-quinazolin-4-yl}-piperidine-1-carboxylic acid (4-morpholin-4-yl-phenyl)-amide]",36
21,"O=C(Nc1ccc(N2CCOCC2)cc1)N1CCC(c2ncnc3cc(OCCC4CCCCN4)ccc23)CC1 (stereo not drawn) [Example 98, 4-[7-(2-Piperidin-2-yl-ethoxy)-quinazolin-4-yl]-piperidine-1-carboxylic acid (4-morpholin-4-yl-phenyl)-amide]",86
22,"CN1CCC(COc2ccc3c(C4CCN(C(=O)Nc5ccc(N6CCCC6)nc5)CC4)ncnc3c2)CC1 [Example 99, 4-[7-(1-Methyl-piperidin-4-ylmethoxy)-quinazolin-4-yl]-piperidine-1-carboxylic acid (6-pyrrolidin-1-yl-pyridin-3-yl)-amide]",14
23,"CC(C)Oc1ccc(NC(=O)N2CCC(c3ncnc4cc(N(C)C)ccc34)CC2)cc1 [Example 100, 4-(7-Dimethylamino-quinazolin-4-yl)-piperidine-1-carboxylic acid (4-isopropoxy-phenyl)-amide]",8
24,"CC(C)Oc1ccc(NC(=O)N2CCC(c3ncnc4ccc(OCCCN5CCCC5=O)cc34)CC2)cc1 [Example 101, 4-{6-[3-(2-Oxo-pyrrolidin-1-yl)-propoxy]-quinazolin-4-yl}-piperidine-1-carboxylic acid (4-isopropoxy-phenyl)-amide]",42
25,"CC(C)Oc1ccc(NC(=O)N2CCC(c3ncnc4cc(NCCCN5CCN(C)CC5)ccc34)CC2)cc1 [Example 102, 4-{7-[3-(4-Methyl-piperazin-1-yl)-propylamino]-quinazolin-4-yl}-piperidine-1-carboxylic acid (4-isopropoxy-phenyl)-amide]",5
26,"CC(C)Oc1ccc(NC(=O)N2CCC(c3ncnc4cc(N5CCN(C)CC5)ccc34)CC2)cc1 [Example 103, 4-[7-(4-Methyl-piperazin-1-yl)-quinazolin-4-yl]-piperidine-1-carboxylic acid (4-isopropoxy-phenyl)-amide]",13
27,"CN1CCN(CCCOc2ccc3c(C4CCN(C(=O)Nc5ccc(N6CCCC6)nc5)CC4)ncnc3c2)CC1 [Example 104, 4-{7-[3-(4-Methyl-piperazin-1-yl)-propoxy]-quinazolin-4-yl}-piperidine-1-carboxylic acid (6-pyrrolidin-1-yl-pyridin-3-yl)-amide]",16
